Laboratory results from patent publication US8324264B1, “Inhibitors of bacterial biofilms and related methods” (Sequoia Sciences, Inc., priority 2011, dated 2012).
Converted amounts (≈) assume the structure as drawn.

Experiments:
P. aeruginosa biofilms = assay: Biofilm growth assay (spreading biofilm on semi-solid agar), P. aeruginosa; format: cell-based; settings: biofilm growth assay, overnight 37° C., vs negative controls, Tables 1-5; for IC85: Pseudomonas aeruginosa, read-out: P. aeruginosa: concentration that reduces the area of the spreading biofilm by greater than or equal to 85%
From the text: (§1) “Biofilm Growth Assay” refers to an assay performed on semi-solid agar surface where the bacteria collectively move out from an inoculation point. To those skilled in the art, the act of bacteria collectively moving out from an inoculation point on a semi-solid surface may be referred to as swarming or a spreading biofilm. (Anderson, et al Microbiology, 2003, 149, 37-46; Daniels, et al. FEMS Microbiology Reviews, 2004, 28, 261-289). The procedure to perform this assay is described in detail in the Examples. This type of surface motility by bacteria has been reported in the literature by those skilled in the art. […] These references are incorporated herein by reference in their entirety.
(§2) The biofilm growth assay was carried out to measure swarming or biofilm spreading on semi-solid agar media in round plates (for example, 100×15 mm), also referred to as Petri dishes. For E. coli, the plates contained LB medium with 0.6% agar and 0.5% glucose. P. aeruginosa plates were made with M8 agar supplemented with 0.2% glucose, 100 μM CaCl2, 1 mM MgSO4, and 0.5% Casamino acids. The agar plates of this assay consisted of 0.4% to 0.7% agar (Bacto or Noble agar), although other media may also be used as described in the literature and known to those skilled in the art. Test compounds at the desired concentration were added to the cooled, autoclaved media. Portions of the media were then poured into the plates (20 mL/plate), and the plates allowed to dry at room temperature for approximately 3 to 4 hours. Alternatively, however, plates may be dried in a laminar flow hood for approximately fifteen to twenty minutes. Overnight cultures were grown in a 37° C. shaker in LB (E. coli) or TSB (P. aeruginosa). Plates were inoculated by placing 5 μL of the appropriate overnight culture in the centers of the plates. The plates then were incubated overnight at 37° C. The area of the zone of spreading bacteria was then measured and replicates are averaged. Percent inhibition was calculated as 100×(area without compound−area with compound)/(area without compound). An active compound was considered that which reduces the area of the spreading biofilm compared to negative controls by greater than or equal to 85%. The values shown in Table 1 are the concentrations of compounds (μg/ml) tested in the biofilm growth assay that reduce the area of the spreading biofilm compared to negative controls by greater than or equal to 85% unless noted differently in Table 1. A > (“greater than” symbol) as used in Table 1 is well understood to those skilled in the art as an indication that the listed concentration was not effective at this concentration.
(§3) All of the compounds shown in Tables 2, 3, 4, and 5, below, were prepared semi-synthetically from oleanolic acid, except for Compounds 2 and 3. Compound 2 was prepared from ursolic acid. Compound 3 was prepared from hederagenin, but could also be prepared from an oleanolic acid analog with a hydroxyl at C23 or C24. These compounds were tested in the spreading biofilm assay according to the methods detailed in Example I, above. The values shown in Tables 2, 3, 4, and 5 are the concentrations of compounds tested in the biofilm growth assay that reduce the area of the spreading biofilm compared to negative controls by greater than or equal to 85%.

E. coli biofilms = assay: Biofilm growth assay (spreading biofilm on semi-solid agar), E. coli; format: cell-based; settings: biofilm growth assay, overnight 37° C., vs negative controls, Tables 1-5; for IC85: Escherichia coli, read-out: E. coli: concentration that reduces the area of the spreading biofilm by greater than or equal to 85%
From the text: as §1, §2, §3

| Structure (SMILES) | IC85 (P. aeruginosa biofilms) | IC85 (E. coli biofilms) | P. aeruginosa: concentration that reduces the area of the spreading biofilm by greater than or equal to 85% (P. aeruginosa biofilms) | E. coli: concentration that reduces the area of the spreading biofilm by greater than or equal to 85% (E. coli biofilms) |
| --- | --- | --- | --- | --- |
| CC1(C)CC[C@]2(C(=O)O)CC[C@]3(C)C(=CCC4[C@@]5(C)CC6=NCN=C6C(C)(C)C5CC[C@]43C)C2C1 (stereo partly shown) [F] | 4 µg/mL (≈ 8.36 µM) | > 8 µg/mL |  |  |
| CC1(C)CC[C@]2(C(=O)O)CC[C@]3(C)C(=CCC4[C@@]5(C)Cc6cc[nH]c6C(C)(C)C5CC[C@]43C)C2C1 (stereo partly shown) [C] | 0.5 µg/mL (≈ 1.05 µM) | 0.5 µg/mL (≈ 1.05 µM) |  |  |
| Cn1cc2c(n1)C(C)(C)C1CC[C@]3(C)C(CC=C4C5CC(C)(C)CC[C@]5(C(=O)O)CC[C@]43C)[C@@]1(C)C2 (stereo partly shown) [E] | 2 µg/mL (≈ 4.06 µM) | > 16 µg/mL |  |  |
| CN1CCN(c2ccc(C3=C4C5CC(C)(C)CC[C@]5(C(=O)O)CC[C@@]4(C)[C@]4(C)CCC5C(C)(C)c6n[nH]c(N)c6C[C@]5(C)C4C3)cc2)CC1 (stereo partly drawn) [Example 53, (4aS,6aS,6bR,13aR)-12-Amino-2,2,6a,6b,9,9,13a-heptamethyl-15-(4-(4-methylpiperazin-1-yl)phenyl)-2,3,4,4a,5,6,6a,6b,7,8,8a,9,11,13,13a,13b,14,15b-octadecahydro-1H-chryseno[1,2-f]indazole-4-a-carboxylic acid] |  |  | 0.5 µg/mL | 2 µg/mL |
| CC1(C)CC[C@]2(C(=O)O)CC[C@]3(C)C(=C(c4ccc(CN5CCOCC5)cc4)CC4[C@@]5(C)Cc6c(n[nH]c6N)C(C)(C)C5CC[C@]43C)C2C1 (stereo partly drawn) [Example 52, (4aS,6aS,6bR,13aR)-12-Amino-2,2,6a,6b,9,9,13a-heptamethyl-15-(4-(morpholinomethyl)phenyl)-2,3,4,4a,5,6,6a,6b,7,8,8a,9,11,13,13a,13b,14,15b-octadecahydro-1H-chryseno[1,2-f]indazole-4-a-carboxylic acid] |  |  | 1 µg/mL | 2 µg/mL |
| CC1=C2[C@@H]3CC(C)(C)CC[C@]3(C(=O)O)CC[C@@]2(C)[C@]2(C)CC[C@H]3C(C)(C)c4n[nH]c(N)c4C[C@]3(C)C2C1 (stereo partly drawn) [Example 4, (4aS,6aS,6bR,8aR,13aR,15bS)-12-Amino-2,2,6a,6b,9,9,13a,15-octamethyl-2,3,4,4a,5,6,6a,6b,7,8,8a,9,11,13,13a,13b,14,15b-octadecahydro-1H-chryseno[1,2-f]indazole-4-a-carboxylic acid] | 0.25 µg/mL (≈ 0.492 µM) | 1 µg/mL (≈ 1.97 µM) |  |  |
| CC1(C)CC[C@]2(C(=O)O)CC[C@]3(C)C(=C(c4ccoc4CN4CCOCC4)CC4[C@@]5(C)Cc6c(n[nH]c6N)C(C)(C)[C@@H]5CC[C@]43C)[C@@H]2C1 (stereo partly drawn) [Example 32, (4aS,6aS,6bR,8aR,13aR,15bS)-12-Amino-2,2,6a,6b,9,9,13a-heptamethyl-15-(2-(morpholinomethyl)furan-3-yl)-2,3,4,4a,5,6,6a,6b,7,8,8a,9,11,13,13a,13b,14,15b-octadecahydro-1H-chryseno[1,2-f]indazole-4-a-carboxylic acid] |  |  | 0.5 µg/mL | 1 µg/mL |
| CC1(C)CC[C@]2(C(=O)O)CC[C@]3(C)C(=C(Br)CC4[C@@]5(C)Cc6c(n[nH]c6N)C(C)(C)[C@@H]5CC[C@]43C)[C@@H]2C1 (stereo partly drawn) [Example 25, (4aS,6aS,6bR,8aR,13aR,15bR)-12-Amino-15-bromo-2,2,6a,6b,9,9,13a-heptamethyl-2,3,4,4a,5,6,6a,6b,7,8,8a,9,11,13,13a,13b,14,15b-octadecahydro-1H-chryseno[1,2-f]indazole-4-a-carboxylic acid] |  |  | 0.5 µg/mL | >2 µg/mL |
| CC1(C)CC[C@]2(C(=O)O)CC[C@]3(C)C(=C(c4cncnc4)CC4[C@@]5(C)Cc6c(n[nH]c6N)C(C)(C)[C@@H]5CC[C@]43C)[C@@H]2C1 (stereo partly drawn) [Example 30, (4aS,6aS,6bR,8aR,13aR,15bS)-12-Amino-2,2,6a,6b,9,9,13a-heptamethyl-15-(pyrimidin-5-yl)-2,3,4,4a,5,6,6a,6b,7,8,8a,9,11,13,13a,13b,14,15b-octadecahydro-1H-chryseno[1,2-f]indazole-4-a-carboxylic acid] |  |  | 2 µg/mL | 1 µg/mL |
| CC1(C)CC[C@]2(C(=O)O)CC[C@]3(C)C(=C(c4ccc5c(c4)CCN5)CC4[C@@]5(C)Cc6c(n[nH]c6N)C(C)(C)[C@@H]5CC[C@]43C)[C@@H]2C1 (stereo partly drawn) [Example 11, (4aS,6aS,6bR,13aR)-12-Amino-15-(indolin-5-yl)-2,2,6a,6b,9,9,13a-heptamethyl-2,3,4,4a,5,6,6a,6b,7,8,8a,9,11,13,13a,13b,14,15b-octadecahydro-1H-chryseno[1,2-f]indazole-4-a-carboxylic acid] | 0.5 µg/mL (≈ 0.818 µM) | 0.5 µg/mL (≈ 0.818 µM) |  |  |
| CC1(C)CC[C@]2(C(=O)O)CC[C@]3(C)C(=C(c4cccc5cnccc45)CC4[C@@]5(C)Cc6c(n[nH]c6N)C(C)(C)C5CC[C@]43C)C2C1 (stereo partly drawn) [Example 46, (4aS,6aS,6bR,13aR)-12-Amino-15-(isoquinolin-5-yl)-2,2,6a,6b,9,9,13a-heptamethyl-2,3,4,4a,5,6,6a,6b,7,8,8a,9,11,13,13a,13b,14,15b-octadecahydro-1H-chryseno[1,2-f]indazole-4-a-carboxylic acid] |  |  | 0.5 µg/mL | 1 µg/mL |
| CN1CCN(c2c([C@]34CCC(C)(C)CC3C3=CCC5[C@@]6(C)Cc7c(n[nH]c7N)C(C)(C)C6CC[C@@]5(C)[C@]3(C)CC4)n[nH]c2O)CC1 (stereo partly drawn) [Compound 89, 3-((4aS,6aS,6bR,13aR)-12-Amino-2,2,6a,6b,9,9,13a-heptamethyl-2,3,4,4a,5,6,6a,6b,7,8,8a,9,11,13,13a,13b,14,15b-octadecahydro-1H-chryseno[1,2-f]indazol-4-a-yl)-4-(4-methylpiperazin-1-yl)-1H-pyrazol-5-ol] |  |  | 1 µg/mL | 1 µg/mL |
| C[C@@H]1c2n[nH]c(N)c2C[C@]2(C)C3CC=C4[C@@H]5CC(C)(C)CC[C@]5(C(=O)O)CC[C@@]4(C)[C@]3(C)CC[C@@H]12 (stereo partly drawn) [Example 3, (4aS,6aS,6bR,8aS,9S,13aS,15bS)-12-Amino-2,2,6a,6b,9,13a-hexamethyl-2,3,4,4a,5,6,6a,6b,7,8,8a,9,11,13,13a,13b,14,15b-octadecahydro-1H-chryseno[1,2-f]indazole-4-a-carboxylic acid] | 0.5 µg/mL (≈ 1.04 µM) | 1 µg/mL (≈ 2.08 µM) |  |  |
| CC1(C)CC[C@]2(C(=O)O)CC[C@]3(C)C(=C(c4ccncc4)CC4[C@@]5(C)Cc6c(n[nH]c6N)C(C)(C)[C@@H]5CC[C@]43C)[C@@H]2C1 (stereo partly drawn) [Example 29, (4aS,6aS,6bR,8aR,13aR,15bS)-12-Amino-2,2,6a,6b,9,9,13a-heptamethyl-15-(pyridin-4-yl)-2,3,4,4a,5,6,6a,6b,7,8,8a,9,11,13,13a,13b,14,15b-octadecahydro-1H-chryseno[1,2-f]indazole-4-a-carboxylic acid] |  |  | 1 µg/mL | 1 µg/mL |
